According to the supplement of paper PMC10307832:

Tests used:
Assay in all cases: relative viability (nuclei count vs DMSO), 5 days (fraction); higher = more cells survive
FG-4592 + Olaparib = compound: Cc1nc(C(=O)NCC(=O)O)c(O)c2ccc(Oc3ccccc3)cc12 [FG-4592] + O=C(c1cc(Cc2n[nH]c(=O)c3ccccc23)ccc1F)N1CCN(C(=O)C2CC2)CC1 [Olaparib] (partner 8 µM)
How it was run: (§1)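 Lung cancer cell lines in 1536-well plates were dosed by pin tool the day after seeding, either with one drug alone or with a fixed anchor-drug dose plus five library-drug doses (not always all listed) in √10 steps. After 5 days, cells were fixed and their nuclei stained in one step (final 0.05% Triton X-100, 1% formaldehyde, 1 ug/ml Hoechst), then counted on 4× images. Relative viability is the nuclei count in treated wells divided by that in vehicle wells. Values are medians of duplicate plates.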

FG-4592 + Tozasertib = compound: Cc1nc(C(=O)NCC(=O)O)c(O)c2ccc(Oc3ccccc3)cc12 [FG-4592] + Cc1cc(Nc2cc(N3CCN(C)CC3)nc(Sc3ccc(NC(=O)C4CC4)cc3)n2)n[nH]1 [Tozasertib] (partner 0.1 µM)
How it was run: as §1

IU1-47 + Foretinib = compound: CC1=CC(=C(N1C2=CC=C(C=C2)Cl)C)C(=O)CN3CCCCC3 [IU1-47] + COc1cc2c(Oc3ccc(NC(=O)C4(C(=O)Nc5ccc(F)cc5)CC4)cc3F)ccnc2cc1OCCCN1CCOCC1 [Foretinib] (partner 0.25 µM)
How it was run: as §1

IU1-47 + Pictilisib = compound: CC1=CC(=C(N1C2=CC=C(C=C2)Cl)C)C(=O)CN3CCCCC3 [IU1-47] + CS(=O)(=O)N1CCN(Cc2cc3nc(-c4cccc5[nH]ncc45)nc(N4CCOCC4)c3s2)CC1 [Pictilisib] (partner 1 µM)
How it was run: as §1

| Cell Line | relative viability (FG-4592 + Olaparib; first compound 0.08 µM) | relative viability (FG-4592 + Olaparib; first compound 0.253 µM) | relative viability (FG-4592 + Olaparib; first compound 0.8 µM) | relative viability (FG-4592 + Olaparib; first compound 2.53 µM) | relative viability (FG-4592 + Olaparib; first compound 8 µM) | relative viability (FG-4592 + Tozasertib; first compound 0.08 µM) | relative viability (FG-4592 + Tozasertib; first compound 0.253 µM) | relative viability (FG-4592 + Tozasertib; first compound 0.8 µM) | relative viability (FG-4592 + Tozasertib; first compound 2.53 µM) | relative viability (FG-4592 + Tozasertib; first compound 8 µM) | relative viability (IU1-47 + Foretinib; first compound 0.08 µM) | relative viability (IU1-47 + Foretinib; first compound 0.253 µM) | relative viability (IU1-47 + Foretinib; first compound 0.8 µM) | relative viability (IU1-47 + Foretinib; first compound 8 µM) | relative viability (IU1-47 + Pictilisib; first compound 0.08 µM) | relative viability (IU1-47 + Pictilisib; first compound 0.253 µM) | relative viability (IU1-47 + Pictilisib; first compound 0.8 µM) | relative viability (IU1-47 + Pictilisib; first compound 8 µM) | relative viability (IU1-47 + Foretinib; first compound 2.53 µM) | relative viability (IU1-47 + Pictilisib; first compound 2.53 µM) |
| --- | --- | --- | --- | --- | --- | --- | --- | --- | --- | --- | --- | --- | --- | --- | --- | --- | --- | --- | --- | --- |
| EPLC-272H | 0.665 | 0.633 | 0.886 | 0.74 | 0.697 | 0.24 | 0.286 | 0.204 | 0.378 | 0.271 | 0.659 | 0.775 | 0.764 | 0.606 | 0.301 | 0.318 | 0.313 | 0.185 | – | – |
| NCI-H1915 | 0.25 | 0.248 | 0.276 | 0.253 | 0.282 | 0.405 | 0.439 | 0.497 | 0.444 | 0.369 | 1.12 | 1.12 | 1.15 | 1.1 | 0.854 | 0.915 | 0.977 | 0.985 | – | – |
| NCI-H2405 | 0.752 | 0.772 | 0.948 | 0.809 | 0.859 | 0.631 | – | 0.763 | 0.735 | 0.757 | 1.13 | 1.11 | 1 | 1.07 | 0.552 | 0.49 | 0.524 | 0.431 | 1.05 | – |
| NCI-H322M | – | 0.746 | 0.713 | 0.766 | 0.897 | 0.469 | 0.46 | 0.442 | 0.518 | 0.396 | 1.07 | 1.03 | 0.882 | 1.03 | 0.56 | 0.478 | 0.514 | 0.513 | 0.965 | 0.517 |
| NCI-H2170 | 0.573 | 0.547 | 0.707 | 0.664 | 0.52 | 0.704 | 0.622 | 0.726 | 0.777 | 0.704 | 1.14 | 1.08 | 1.03 | 1.24 | 0.309 | 0.308 | 0.287 | 0.331 | 0.994 | 0.305 |
| NCI-H1395 | 0.526 | 0.488 | 0.471 | 0.48 | 0.385 | 0.775 | 0.728 | 0.702 | 0.75 | 0.791 | 0.944 | 0.895 | 1.12 | 1 | 0.597 | 0.65 | 0.569 | 0.433 | 0.939 | – |
| NCI-H358 | 0.55 | 0.552 | 0.662 | 0.579 | 0.695 | 0.106 | 0.111 | 0.115 | 0.113 | 0.091 | 0.828 | 0.628 | 0.863 | 0.658 | 0.287 | 0.323 | 0.352 | 0.366 | 0.652 | – |
| NCI-H838 | 0.796 | 0.71 | 0.796 | 0.756 | 0.806 | 0.296 | 0.246 | 0.279 | 0.242 | 0.26 | 1.12 | 1.07 | 0.981 | 1.11 | 0.391 | 0.462 | 0.485 | 0.425 | 1.06 | 0.436 |
| CAL-12T | 0.63 | 0.67 | 0.727 | 0.764 | 0.687 | 0.335 | 0.267 | 0.312 | 0.293 | 0.29 | 1.12 | 1.1 | 1.13 | 1.03 | 0.448 | 0.392 | 0.537 | 0.396 | 1.11 | 0.413 |
